Target: human chemokine receptor CXCR7 (Homo sapiens (Human), UniProt P25106)
Test: Tango CXCR7-bla U2OS beta-arrestin recruitment assay (beta-lactamase reporter, FRET), antagonism of CXCL12/SDF1-α;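 also: compounds preincubated 15 min before CXCL12 addition, then 22 h at 37 °C, FRET emission ratio read with CCF4-AM substrate after 2 h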
Type: cell-based
Settings: antagonistic effect on CXCR7; Tango CXCR7-bla U2OS cells, CXCL12/SDF1-α at its EC80

Chain of human chemokine receptor CXCR7 (P25106 whole entry): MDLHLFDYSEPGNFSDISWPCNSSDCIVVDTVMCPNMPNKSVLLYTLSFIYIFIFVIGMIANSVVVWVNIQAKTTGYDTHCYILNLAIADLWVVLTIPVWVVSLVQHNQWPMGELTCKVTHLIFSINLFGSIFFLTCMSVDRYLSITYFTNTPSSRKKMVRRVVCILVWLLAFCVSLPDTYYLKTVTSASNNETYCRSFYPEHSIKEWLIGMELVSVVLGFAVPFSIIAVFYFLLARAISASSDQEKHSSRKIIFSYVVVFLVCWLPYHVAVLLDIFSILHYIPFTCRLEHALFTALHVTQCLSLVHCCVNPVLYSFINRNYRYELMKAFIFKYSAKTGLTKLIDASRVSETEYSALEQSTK

Substance | IC50 [nM]
(3R*,4R*)-1-Cyclopropylmethyl-4-{[3-(2,4-difluoro-phenyl)-isoxazole-5-carbonyl]-amino}-piperidine-3-carboxylic acid ((1S*,2R*)-2-phenyl-cyclopropyl)-amide and (3R*,4R*)-1-Cyclopropylmethyl-4-{[3-(2,4-difluoro-phenyl)-isoxazole-5-carbonyl]-amino}-piperidine-3-carboxylic acid ((1R*,2S*)-2-phenyl-cyclopropyl)-amide [Example 1.164] | 267
rac-(3R*,4R*)-1-Cyclohexyl-4-{[5-(2-difluoro-phenyl)-oxazole-2-carbonyl]-amino}-piperidine-3-carboxylic acid (1-pyridin-2-yl-cyclopropyl)-amide [Example 3.011] | 22

Reference: patent US11306078B2, “Piperidine CXCR7 receptor modulators” (IDORSIA PHARMACEUTICALS LTD., priority 2016, dated 2022)
